In paper PMC3174134, “Lucanthone and Its Derivative Hycanthone Inhibit Apurinic Endonuclease-1 (APE1) by Direct Protein Binding” (PLoS ONE, 2011):

Tests used:
tubulin = assay: Tubulin stability in U251 1-5 whole cell extracts, Western blot; conditions: lucanthone 2.5-100 µM; CRT at 200 µM
Experimental: (§1) Total purified protein concentration was determined by the ratio of A280/A260. 250 ng of APE1 treated with lucanthone or hycanthone (0.05–100 µM) for 2 h at 37°C in final volume of 30 µl were mixed with an equal volume of gel loading buffer (0.001% bromophenol blue, 4% SDS, 10% 2-ME, 20% glycerol, and 125 mM Tris pH 6.8) and denatured at 95°C for 5 min. Total protein concentration in cell extracts was determined using the Bradford assay (BioRad, Hercules, CA) and 25 µg of total protein from soluble or insoluble cell fractions were mixed with an equal volume of gel loading buffer (0.001% bromophenol blue, 4% SDS, 10% 2-ME, 20% glycerol, and 125 mM Tris pH 6.8) and denatured at 95°C for 5 min. This mixture was separated by SDS-PAGE (4% stacking, 7.5% resolving gel) for 2–3 h at 40 mA on a BioRad MiniPROTEAN II Electrophoresis Cell. To detect proteins, proteins were transferred onto a trans-Blot nitrocellulose membrane (0.45 µm; BioRad) overnight at 4°C at 15 mA in standard Tris-Glycine buffer containing 20% ethanol. […] Chemi-luminescence was developed using an ECL kit according to the manufacturer's instructions and detected by exposing the blot to HyperfilmECL for 30 s–3 min. […]

APE1 [1] = target: T1, APE1 (Homo sapiens, UniProt P27695); assay: APE1 cleavage in whole cell extracts of U251 1-5 APE1 overexpressor clone, Western blot with protease inhibitor cocktail; parameters: the full length APE1 protein was successfully expressed and purified; made in house; host or cells: E. coli BL21/DE3; conditions: U251 1-5 whole cell extracts, 2 h, 37°C
T1 sequence (P27695 whole entry): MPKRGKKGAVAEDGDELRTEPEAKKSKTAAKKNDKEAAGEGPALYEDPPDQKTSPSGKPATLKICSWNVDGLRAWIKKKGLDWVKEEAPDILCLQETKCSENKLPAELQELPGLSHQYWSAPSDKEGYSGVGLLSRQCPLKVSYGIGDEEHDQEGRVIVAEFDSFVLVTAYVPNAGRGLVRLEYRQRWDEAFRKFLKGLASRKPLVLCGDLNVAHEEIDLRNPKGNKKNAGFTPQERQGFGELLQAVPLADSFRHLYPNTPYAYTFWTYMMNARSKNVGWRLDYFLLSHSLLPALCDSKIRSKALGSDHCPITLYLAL
Experimental: as §1

APE1 [2] = target: T1, APE1; assay: MALDI-TOF analysis of APE1 degradation; parameters: the full length APE1 protein was successfully expressed and purified; made in house; host or cells: E. coli BL21/DE3; conditions: 100 µM drug
Experimental: 100 nM of APE1 protein was treated with 100 µM of lucanthone, hycanthone or CRT at 37°C for 2 h and 24 h and analyzed on sinipinic acid matrix on a Voyager-DE STR (Applied Biosystems) MALDI-TOF instrument at the Proteomics facility at SUNYSB in a linear mode.

O=C(O)c1cc2cccc([N+](=O)[O-])c2[nH]1 [CRT0044876, 7-Nitroindole-2-carboxylic acid]
Effect on tubulin protein (tubulin): some shift in its migration
Concentration causing cleavage of APE1 (APE1 [1]): 200 µM
Time at which APE1 degradation is seen by MALDI (APE1 [2]): 24 h
APE1 protein fragments by MALDI-TOF (APE1 [2]; 37°C, 2 or 24 h): much less cleavage of APE1
Full length 35.5 kDa APE1 peak by MALDI-TOF (APE1 [2]; 37°C, 24 h): still an intact 35.5 kDa peak
